From patent publication US9850283B2, “Macrocyclic inhibitors of the PD-1/PD-L1 and CD80(B7-1)/PD-L1 protein/protein interactions” (BRISTOL-MYERS SQUIBB COMPANY, priority 2013, dated 2017)
Like-named read-outs stand apart in the source and are kept apart here. Starred links: 1 amine or outer side, 2 acyl side, 3 side chain; linkers in the order of their positions; H or OH if unused. Positions of bridges follow the written chain, without caps; N, C: chain ends. Non-standard residues stand in square brackets, D forms with d. Residues, ends and D or L forms follow the SMILES beside them. ξ: configuration not given here. X17 = O=C([C@@H]1C[C@@H](c2nn[nH]n2)CN1[*:1])[*:2]; Phe(3-OMe) = COc1cccc(C[C@H](N)C(=O)O)c1; Bta = N[C@@H](Cc1csc2ccccc12)C(=O)O; ξPro(4R-OH) = O=C(O)C1C[C@@H](O)CN1; hhPhe = N[C@@H](CCCc1ccccc1)C(=O)O; Hyp = O=C(O)[C@@H]1C[C@@H](O)CN1; dNMeNle = CCCC[C@@H](NC)C(=O)O; NMeNle = CCCC[C@H](NC)C(=O)O; NMeA = CN[C@@H](C)C(=O)O; Orn = NCCC[C@H](N)C(=O)O; Dab = NCC[C@H](N)C(=O)O; Dap = NC[C@H](N)C(=O)O; ξPip = O=C(O)C1CCCCN1; ξC = NC(CS)C(=O)O; Sar = CNCC(=O)O

Legend:
Human PD-L1/PD-1 = biological target: T1, Human PD-L1/PD-1 (Homo sapiens, UniProt Q9NZQ7); assay: HTRF PD-1-Ig/PD-L1-His binding assay (human PD-L1)
T1 construct: made in house; host or cells: HEK293T
Method in brief: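 Soluble PD-1-Ig binding to PD-L1-His measured by HTRF in dPBS with 0.1% BSA and 0.05% Tween-20. Detection used europium cryptate anti-Ig antibody (1 nM final) and APC anti-His antibody (20 nM final) added on top of the binding reaction.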

[1] = biological target: T2, LK35.2-hPD-L1 cells / PE-labeled PD-1-Ig (Homo sapiens, UniProt Q9NZQ7); assay: LK35.2-hPD-L1 cell binding high-content screening assay; type: cell-based
T2 construct: expressed in transfected cells; host or cells: LK35.2 mouse B cell line
Method in brief: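 Mouse LK35.2 B cells stably overexpressing human PD-L1 were cultured overnight in RPMI with 10% FCS, then given compound and PE-labeled human PD-1-Ig (1 nM final) for 1 h at 37 °C. After three dPBS washes, bound fluorescence was quantified by high-content imaging.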

[2] = cluster symbol, read-out: HTRF IC50 cluster
[3] = cluster symbol, cell line of CBA not given (LK35.2-hPD-L1 or 293T-hPD-L1), read-out: CBA IC50 cluster
[4] = cell binding assay, cell line not given, cluster symbol, read-out: CBA IC50 cluster

T1 sequence (Q9NZQ7 with tags, fused parts or gaps): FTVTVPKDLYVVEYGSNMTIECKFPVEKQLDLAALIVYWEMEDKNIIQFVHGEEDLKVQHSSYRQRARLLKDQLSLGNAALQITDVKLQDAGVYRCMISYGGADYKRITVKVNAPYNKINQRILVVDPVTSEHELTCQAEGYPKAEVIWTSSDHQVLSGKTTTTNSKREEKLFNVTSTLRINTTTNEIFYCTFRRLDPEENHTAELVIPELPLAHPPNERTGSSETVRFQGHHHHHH
T2 sequence (Q9NZQ7 19-290): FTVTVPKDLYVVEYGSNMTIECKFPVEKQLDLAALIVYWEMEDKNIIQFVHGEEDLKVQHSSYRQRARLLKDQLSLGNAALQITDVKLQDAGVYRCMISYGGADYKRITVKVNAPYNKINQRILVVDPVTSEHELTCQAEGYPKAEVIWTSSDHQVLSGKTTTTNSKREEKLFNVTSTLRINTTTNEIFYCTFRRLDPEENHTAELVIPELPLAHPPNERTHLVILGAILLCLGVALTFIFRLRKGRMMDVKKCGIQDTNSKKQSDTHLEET

Row | IC50 (Human PD-L1/PD-1; [2]) [nM] | IC50 [1, 3] [nM] | IC50 [1, 4] [nM] | IC50 (Human PD-L1/PD-1; value given instead of cluster, read-out: HTRF IC50 value) [nM] | IC50 ([1]; cell binding assay, cell line not given, value given instead of cluster, read-out: CBA IC50 value) [nM] | SMILES
1 | > 30.5 | > 74.3 |  |  |  | CCCC[C@H]1C(=O)N(C)[C@@H](CCCC)C(=O)N[C@@H](CCCNC(=N)N)C(=O)N[C@H](C(=O)NCC(N)=O)CSCC(=O)N[C@@H](Cc2ccccc2)C(=O)N(C)[C@@H](C)C(=O)N[C@@H](CC(N)=O)C(=O)N2CCC[C@H]2C(=O)N[C@@H](Cc2cnc[nH]2)C(=O)N[C@@H](CC(C)C)C(=O)N(C)CC(=O)N[C@@H](Cc2cccc(OC)c2)C(=O)N[C@@H](CO)C(=O)N[C@@H](Cc2c[nH]c3ccccc23)C(=O)N1C [Example 1085] ({CH2CO}-F[NMeA]NPHL[Sar][Phe(3-OMe)]SW[NMeNle][NMeNle]RCG-NH2; thioether N-14)
2 | > 30.5 | > 74.3 |  |  |  | CCCC[C@H]1C(=O)N(C)CC(=O)N[C@@H](CC(=O)O)C(=O)N[C@@H](C(C)C)C(=O)N(C)[C@@H](Cc2ccccc2)C(=O)N[C@@H](Cc2ccc(O)cc2)C(=O)N(C)CC(=O)N[C@@H](Cc2c[nH]c3ccccc23)C(=O)N[C@@H](Cc2ccc(O)cc2)C(=O)N[C@@H](CC(C)C)C(=O)N[C@H](C(=O)NCC(N)=O)CC=CC(=O)N[C@@H](Cc2ccccc2)C(=O)N(C)[C@@H](Cc2ccccc2)C(=O)N1C [Example 3160]
3 | 0.385 to 6.74 |  | 0.158 to 4.71 |  |  | CCCC[C@H]1C(=O)N(C)[C@@H](CCCC)C(=O)N[C@@H](CCN)C(=O)N[C@H](C(=O)NCC(N)=O)CSCC(=O)N[C@@H](Cc2ccc(O)cc2)C(=O)N(C)[C@@H](C)C(=O)N[C@@H](CC(N)=O)C(=O)N2CCC[C@H]2C(=O)N[C@@H](Cc2c[nH]cn2)C(=O)N[C@@H](CCC(=O)O)C(=O)N2C[C@H](c3nn[nH]n3)C[C@H]2C(=O)N[C@@H](Cc2c[nH]c3ccccc23)C(=O)N[C@@H](CCN)C(=O)N[C@@H](Cc2c[nH]c3ccccc23)C(=O)N1C [Example 13004] ({CH2CO}-Y[NMeA]NPHE[X17]W[Dab]W[NMeNle][NMeNle][Dab]CG-NH2; thioether N-14)
4 | 0.385 to 6.74 | 0.158 to 4.71 |  |  |  | CCCC[C@H]1C(=O)N(C)[C@@H](CCCC)C(=O)N[C@@H](CCCN)C(=O)N[C@H](C(=O)NCC(N)=O)CSCC(=O)N[C@@H](Cc2ccc(O)cc2)C(=O)N(C)[C@@H](C)C(=O)N[C@@H](CC(N)=O)C(=O)N2CCC[C@H]2C(=O)N[C@@H](CN)C(=O)N[C@@H](CCC(=O)O)C(=O)N2C[C@H](O)C[C@H]2C(=O)N[C@@H](Cc2c[nH]c3ccccc23)C(=O)N[C@@H](CCN)C(=O)N[C@@H](Cc2csc3ccccc23)C(=O)N1C [Example 1185] ({CH2CO}-Y[NMeA]NP[Dap]E[Hyp]W[Dab][Bta][NMeNle][NMeNle][Orn]CG-NH2; thioether N-14)
5 | 6.76 to 30.3 | 4.78 to 72.9 |  |  |  | CCCC[C@@H]1C(=O)N(C)[C@H](CCCC)C(=O)N[C@@H](CCCNC(=N)N)C(=O)N[C@@H](C(=O)NCC(N)=O)CSCC(=O)N[C@@H](Cc2ccc(O)cc2)C(=O)N2CCCCC2C(=O)N[C@H](CC(=O)O)C(=O)N2CCC[C@H]2C(=O)N[C@H](Cc2c[nH]cn2)C(=O)N[C@@H](CCCN)C(=O)N2C[C@H](O)CC2C(=O)N[C@H](Cc2c[nH]c3ccccc23)C(=O)N[C@@H](CO)C(=O)N[C@@H](Cc2c[nH]c3ccccc23)C(=O)N1C (stereo partly drawn) [Example 1218] ({CH2CO}-Y[ξPip][dD]P[dH][Orn][ξPro(4R-OH)][dW]SW[dNMeNle][dNMeNle]R[dC]G-NH2; thioether N-14)
6 |  |  |  | 13.6 | 228 | CCCC[C@H]1C(=O)N(C)[C@@H](CCCC)C(=O)N[C@@H](CCCNC(=N)N)C(=O)N[C@H](C(=O)NCC(N)=O)CSCC(=O)N[C@@H](CCCc2ccccc2)C(=O)N(C)[C@@H](C)C(=O)N[C@@H](CC(N)=O)C(=O)N2CCC[C@H]2C(=O)N[C@@H](Cc2cnc[nH]2)C(=O)N[C@@H](CC(C)C)C(=O)N2CCC[C@H]2C(=O)N[C@@H](Cc2c[nH]c3ccccc23)C(=O)N[C@@H](CO)C(=O)N[C@@H](Cc2c[nH]c3ccccc23)C(=O)N1C [Example 7018] ({CH2CO}-[hhPhe][NMeA]NPHLPWSW[NMeNle][NMeNle]RCG-NH2; thioether N-14)
7 | 0.385 to 6.74 |  | 0.158 to 4.71 |  |  | CCCC[C@H]1C(=O)N(C)[C@@H](CCCC)C(=O)N[C@@H](CCCNC(=N)N)C(=O)NC(C(=O)NCC(N)=O)CSCC(=O)N[C@@H](Cc2ccc(O)cc2)C(=O)N(C)[C@@H](C)C(=O)N[C@@H](CC(N)=O)C(=O)N2CCC[C@H]2C(=O)N[C@@H](Cc2cnc[nH]2)C(=O)N[C@@H](CC(N)=O)C(=O)N2CCC[C@H]2C(=O)N[C@@H](Cc2c[nH]c3ccccc23)C(=O)N[C@@H](CO)C(=O)N[C@@H](Cc2csc3ccccc23)C(=O)N1C (some centres unmarked) [Example 9064] ({CH2CO}-Y[NMeA]NPHNPWS[Bta][NMeNle][NMeNle]R[ξC]G-NH2; thioether N-14)
